Measurements taken from US20100069341A1, “TETRAHYDRO-PYRANOPYRAZOLE CANNABINOID MODULATORS” (priority 2005, published 2010).
Read-outs that look alike come from different tables or passages of the source.

How the values were obtained:
[1] = molecular target: T1, Cannabinoid CB1 Receptor (Homo sapiens, UniProt P21554); experiment: Binding assay, cannabinoid CB1 receptor ([3H]-CP-55,940 displacement, SK-N-MC cell membranes); conditions: for inhibition at 0.2 µM: read-out: Cannabinoid CB1 Receptor Binding, percent inhibition
T1 construct: expressed in transfected cells; semi-purified membrane pellet
T1 sequence (P21554 whole entry): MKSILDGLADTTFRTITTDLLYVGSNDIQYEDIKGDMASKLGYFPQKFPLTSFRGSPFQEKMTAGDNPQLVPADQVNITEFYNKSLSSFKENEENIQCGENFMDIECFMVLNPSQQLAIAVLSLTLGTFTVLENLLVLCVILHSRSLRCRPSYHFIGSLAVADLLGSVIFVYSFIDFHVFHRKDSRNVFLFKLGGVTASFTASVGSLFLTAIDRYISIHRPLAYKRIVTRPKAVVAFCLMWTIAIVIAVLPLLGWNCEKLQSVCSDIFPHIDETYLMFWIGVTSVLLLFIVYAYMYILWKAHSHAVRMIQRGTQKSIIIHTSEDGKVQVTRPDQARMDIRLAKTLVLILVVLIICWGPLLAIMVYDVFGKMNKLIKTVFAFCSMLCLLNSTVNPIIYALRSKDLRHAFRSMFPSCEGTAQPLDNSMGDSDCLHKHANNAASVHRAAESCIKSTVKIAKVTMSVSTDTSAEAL

[2] = molecular target: T2, Cannabinoid CB2 Receptor (Homo sapiens, UniProt P34972); experiment: Binding assay, cannabinoid CB2 receptor ([3H]-CP-55,940 displacement, SK-N-MC cell membranes); conditions: test concentration of 0.2 μM; human CB2 in SK-N-MC membranes; read-out: Cannabinoid CB2 Receptor Binding, percent inhibition
T2 construct: expressed in transfected cells; semi-purified membrane pellet
T2 sequence (P34972 whole entry): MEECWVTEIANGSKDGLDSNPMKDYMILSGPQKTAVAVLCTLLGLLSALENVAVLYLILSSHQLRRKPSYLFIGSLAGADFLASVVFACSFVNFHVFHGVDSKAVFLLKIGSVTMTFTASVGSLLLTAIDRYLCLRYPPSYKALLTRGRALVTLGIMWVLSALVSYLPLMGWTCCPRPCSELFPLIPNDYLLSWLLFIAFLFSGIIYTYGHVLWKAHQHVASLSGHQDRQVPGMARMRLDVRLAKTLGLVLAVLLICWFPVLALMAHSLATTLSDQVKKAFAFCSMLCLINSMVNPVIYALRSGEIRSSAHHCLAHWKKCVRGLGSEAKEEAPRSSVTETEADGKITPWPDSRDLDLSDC
Procedure, shortened: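 Membranes from SK-N-MC cells stably expressing human CB2 were incubated 90 min at 30 °C with 0.2 nM [3H]-CP-55,940 in Tris buffer, pH 7.5, with BSA; 10 uM WIN 55,212 defined non-specific binding. Filter-bound counts gave IC50 by linear regression, or % inhibition at 0.2 μM.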

[3] = test concentration of 0.2 μM, human CB1 in SK-N-MC membranes

Structure (SMILES) | IC50 [1] [µM] | inhibition at 0.2 µM [1, 3] [%] | inhibition at 0.2 µM [2] [%] | inhibition at 0.2 µM [1] [%]
O=C(NN1CCCCC1)c1nn(-c2ccc(Cl)cc2Cl)c2c1COC/C2=C\c1ccc(Cl)s1 [Cpd 54, (7Z)-7-(5-chloro-thiophen-2-ylmethylene)-1-(2,4-dichloro-phenyl)-1,4,6,7-tetrahydro-pyrano[4,3-c]pyrazole-3-carboxylic acid piperidin-1-ylamide] | 0.02 | 78 | 13 | –
C[C@@H](NC(=O)c1nn(-c2ccc(Cl)cc2Cl)c2c1COC/C2=C\c1cccs1)c1ccccc1 [Cpd 32, (7Z)-1-(2,4-dichloro-phenyl)-7-thiophen-2-ylmethylene-1,4,6,7-tetrahydro-pyrano[4,3-c]pyrazole-3-carboxylic acid [(R)-1-phenyl-ethyl]-amide] | 0.02 | 76 | 11 | –
C[C@@H](NC(=O)c1nn(-c2ccc(Cl)cc2Cl)c2c1COC/C2=C\c1ccc(Cl)o1)c1ccccn1 [Cpd 66, (7Z)-7-(5-chloro-furan-2-ylmethylene)-1-(2,4-dichloro-phenyl)-1,4,6,7-tetrahydro-pyrano[4,3-c]pyrazole-3-carboxylic acid [(R)-1-pyridin-2-yl-ethyl]-amide] | – | 58 | 10 | –
C[C@@H](NC(=O)c1nn(-c2ccc(Cl)cc2Cl)c2c1COCC2Cc1ccc(F)cc1)c1ccccc1 (stereo partly drawn) [Cpd 24, 1-(2,4-dichloro-phenyl)-7-(4-fluoro-benzyl)-1,4,6,7-tetrahydro-pyrano[4,3-c]pyrazole-3-carboxylic acid [(R)-1-phenyl-ethyl]-amide] | – | 66 | 13 | –
O=C(NN1CCCCC1)c1nn(-c2ccc(Cl)cc2Cl)c2c1COC/C2=C\c1ccc(Cl)o1 [Cpd 64, (7Z)-7-(5-chloro-furan-2-ylmethylene)-1-(2,4-dichloro-phenyl)-1,4,6,7-tetrahydro-pyrano[4,3-c]pyrazole-3-carboxylic acid piperidin-1-ylamide] | – | 62 | 12 | –
O=C(NN1CCCCCC1)c1nn(-c2ccc(Cl)cc2Cl)c2c1COC/C2=C\c1cccs1 [Cpd 36, (7Z)-1-(2,4-dichloro-phenyl)-7-thiophen-2-ylmethylene-1,4,6,7-tetrahydro-pyrano[4,3-c]pyrazole-3-carboxylic acid azepan-1-ylamide] | 0.02 | 84 | 16 | –
O=C(N[C@H]1c2ccccc2C[C@H]1O)c1nn(-c2ccc(Cl)cc2Cl)c2c1COC/C2=C\c1ccc(F)cc1 [Cpd 4, (7Z)-1-(2,4-dichloro-phenyl)-7-(4-fluoro-benzylidene)-1,4,6,7-tetrahydro-pyrano[4,3-c]pyrazole-3-carboxylic acid [(1S,2R)-2-hydroxy-indan-1-yl]-amide] | – | 64 | 19 | –
CC1CCCC(C)N1NC(=O)c1nn(-c2ccc(Cl)cc2Cl)c2c1COC/C2=C\c1cccs1 (stereo not shown) [Cpd 37, (7Z)-1-(2,4-dichloro-phenyl)-7-thiophen-2-ylmethylene-1,4,6,7-tetrahydro-pyrano[4,3-c]pyrazole-3-carboxylic acid (2,6-dimethyl-piperidin-1-yl)-amide] | – | 61 | 20 | –
O=C(c1nn(-c2ccc(Cl)cc2Cl)c2c1COC/C2=C\c1ccc(F)cc1)N1CCCCC1 [Cpd 8, (7Z)-[1-(2,4-dichloro-phenyl)-7-(4-fluoro-benzylidene)-1,4,6,7-tetrahydro-pyrano[4,3-c]pyrazol-3-yl]-piperidin-1-yl-methanone] | – | 45 | 7 | –
O=C(NN1CCCCCC1)c1nn(-c2ccc(Cl)cc2Cl)c2c1COC/C2=C\c1ccc(Cl)o1 [Cpd 65, (7Z)-7-(5-chloro-furan-2-ylmethylene)-1-(2,4-dichloro-phenyl)-1,4,6,7-tetrahydro-pyrano[4,3-c]pyrazole-3-carboxylic acid azepan-1-ylamide] | 0.07 | 71 | 9 | –
C[C@H](NC(=O)c1nn(-c2ccc(Cl)cc2Cl)c2c1COC/C2=C\c1ccsc1)C1CCCCC1 [Cpd 41, (7Z)-1-(2,4-dichloro-phenyl)-7-thiophen-3-ylmethylene-1,4,6,7-tetrahydro-pyrano[4,3-c]pyrazole-3-carboxylic acid [(S)-1-cyclohexyl-ethyl]-amide] | – | – | 21 | 56
O=C(N[C@@H]1c2ccccc2C[C@@H]1O)c1nn(-c2ccc(Cl)cc2Cl)c2c1COC/C2=C\c1ccc(F)cc1 [Cpd 5, (7Z)-1-(2,4-dichloro-phenyl)-7-(4-fluoro-benzylidene)-1,4,6,7-tetrahydro-pyrano[4,3-c]pyrazole-3-carboxylic acid [(1R,2S)-2-hydroxy-indan-1-yl)-amide] | 0.03 | 82 | 28 | –
O=C(NN1CCCCC1)c1nn(-c2ccc(Cl)cc2Cl)c2c1COC/C2=C\c1ccsc1 [Cpd 43, (7Z)-1-(2,4-dichloro-phenyl)-7-thiophen-3-ylmethylene-1,4,6,7-tetrahydro-pyrano[4,3-c]pyrazole-3-carboxylic acid piperidin-1-ylamide] | 0.03 | 83 | 19 | –
COC[C@H]1CCCN1NC(=O)c1nn(-c2ccc(Cl)cc2Cl)c2c1COC/C2=C\c1ccc(Cl)s1 [Cpd 74, (7Z)-7-(5-chloro-thiophen-2-ylmethylene)-1-(2,4-dichloro-phenyl)-1,4,6,7-tetrahydro-pyrano[4,3-c]pyrazole-3-carboxylic acid [(2R)-2-methoxymethyl-pyrrolidin-1-yl]-amide] | – | 65 | 12 | –
C[C@H](NC(=O)c1nn(-c2ccc(Cl)cc2Cl)c2c1COC/C2=C\c1ccc(Cl)s1)C1CCCCC1 [Cpd 50, (7Z)-7-(5-chloro-thiophen-2-ylmethylene)-1-(2,4-dichloro-phenyl)-1,4,6,7-tetrahydro-pyrano[4,3-c]pyrazole-3-carboxylic acid [(S)-1-cyclohexyl-ethyl]-amide] | – | 34 | 2 | –
O=C(NN1CC2CCCC2C1)c1nn(-c2ccc(Cl)cc2Cl)c2c1COCC2Cc1ccc(F)cc1 (stereo not shown) [Cpd 22, 1-(2,4-dichloro-phenyl)-7-(4-fluoro-benzyl)-1,4,6,7-tetrahydro-pyrano[4,3-c]pyrazole-3-carboxylic acid (hexahydro-cyclopenta[c]pyrrol-2-yl)-amide] | – | 66 | 18 | –
C[C@H](NC(=O)c1nn(-c2ccc(Cl)cc2Cl)c2c1COC/C2=C\c1ccsc1)c1ccccc1 [Cpd 42, (7Z)-1-(2,4-dichloro-phenyl)-7-thiophen-3-ylmethylene-1,4,6,7-tetrahydro-pyrano[4,3-c]pyrazole-3-carboxylic acid [(S)-1-phenyl-ethyl]-amide] | – | – | 16 | 57
